# In US4216226A (priority 1977, dated 1980):
# Where a name gives a salt, the structure may show the parent alone. Read-outs that look alike come from different tables or passages of the source.
# Columns and labels:
# [1] = tested on: Newcastle disease virus (NDV) Miyadera strain; type: cell-based
# [2] = tested on: Infectious pancrease necrosis virus (IPNV); type: cell-based
# [3] = tested on: Influenza virus A-O/PR-8 strain; type: cell-based
# [4] = tested on: Vaccinia virus Lister strain; type: cell-based
# Herpes virus = type: cell-based
# [5] = tested on: Influenza virus A0 /PR-8 strain; type: in vivo, mice of the ICR strain; conditions: intraperitoneal, twice a day for 3 days, mouse lung at 72 hours
# [6] = tested on: vaccinia virus Lister strain; type: in vivo, mice of the ICR strain; conditions: subcutaneous, 4 times first day, twice a day days 2-5, 10th day
# [7] = tested on: Newcastle disease virus Sato strain; type: in vivo, embryonated chick egg; conditions: for MDT (difference from control): Sato strain, 104 hours incubation
# [8] = tested on: Newcastle disease virus Miyadera strain; type: in vivo, embryonated chick egg; conditions: for MDT (difference from control): Miyadera strain, 104 hours incubation
# [9] = tested on: Newcastle disease virus I(1) strain; type: in vivo, embryonated chick egg; conditions: 104 hours incubation
# [10] = tested on: Newcastle disease virus Komarov strain; type: in vivo, embryonated chick egg; conditions: for MDT (difference from control): Komarov strain, 104 hours incubation
# mice = conditions: mouse, in vivo, ip
# in vitro [11] = conditions: human, hela s3 cells
# in vitro [12] = conditions: rainbow trout, rtg-2 cells
# [13] = tested on: Vesicular stomatitis virus (VSV); type: cell-based
# [14] = tested on: IPNV (infectious pancreas necrosis virus); test: Preventing IPN virus in fish; type: in vivo, rainbow trout; conditions: 16 ppm water bath 96 hours, 18° C.; for Cumulative number of dying fish: 20 fish
# Experimental: 40 Young (4-6 cm in body length) rainbow trout were sensitised by immersion for 3 hours under aeration in 7.5 liters of a water bath containing IPNV (infectious pancreas necrosis virus) which was prepared by diluting to a 1000-fold volume a cell stock of IPNV (virus titer: 10^6.301 TCID50 /ml) cultured in RTG-2 cells. Immediately after this sensitisation, the fish were divided into two groups each comprising 20 fish and each group was placed in two glass vessels containing 50 liters of water, respectively. The first group of fish was the treated group, while the second group of fish was the control group (untreated).
# After the first group of fish was placed in the water-containing vessel, L-hydroxyureidomethyl glycine was dissolved in the water to a concentration of 16 ppm. in this vessel, whereupon the fish were treated during 96 hours with the water bath containing the active compound. Thereafter, the active solution of the bath was replaced by fresh water containing no active compound, and the fish were observed daily to count the number of the young fish which fell dead. The active compound was not added to the water in the second vessel containing the second group of fish (control group), although replacement of water was made in the second vessel. In this way, the effect of L-hydroxyureidomethyl glycine in preventing IPNV infection was estimated. All of the tests were conducted in the water at 18° C.
# Influenza virus = type: cell-based
# viruses = conditions: cited from earlier work
# [15] = HeLa S3 cell, 37° C., 5-7 days, at MDC, 1/2 or 1/4 MDC, vs control
# [16] = Vero cell, 37° C., 5-7 days, at MDC, 1/2 or 1/4 MDC, vs control
# [17] = L-929 cell, 37° C., 5-7 days, at MDC, 1/2 or 1/4 MDC, vs control
smiles,measurement,setting,value
N[C@@H](Cc1ccc(O)cn1)C(=O)O,"Difference of -log TCID50 /ml, NDV",[1]; [15],> 4.00
same,"Difference of -log TCID50 /ml, IPNV",[2],3.75
same,"Difference of -log TCID50 /ml, Influenza virus",[3]; [16],1.00
same,"Difference of -log TCID50 /ml, Vaccinia virus",[4]; [15],> 1.97
same,"Difference of -log TCID50 /ml, Herpes virus",Herpes virus,> 2.50
same,"Per cent of Inhibition (virus multiplication, HA units)",[5]; 50 mg/kg,52%
same,"Per cent of Inhibition (virus multiplication, HA units)",[5]; 100 mg/kg,77%
same,Percent of inhibition of pock,[6]; 6.2 mg/kg,56.9%
same,MDT (difference from control),[7]; 500 mg per egg,> 12.1
same,MDT (difference from control),"[7]; 1,000 mg per egg",> 19.2
same,Δlog MLD,[7]; in vivo,0.5
same,MDT (difference from control),[8]; 500 mg per egg,-3.1
same,MDT (difference from control),"[8]; 1,000 mg per egg",14.8
same,MDT (difference from control),[9]; 500 mg per egg,> 80.4
same,MDT (difference from control),"[9]; 1,000 mg per egg",> 16.8
same,MDT (difference from control),[10]; 500 mg per egg,3.2
same,MDT (difference from control),"[10]; 1,000 mg per egg",0
same,Δlog MLD,[10]; in vivo,1.0
same,Acute toxicity LD0,mice,> 1000 mg/kg
same,MCC,in vitro [11],500 µg/mL
same,MCC,in vitro [12],500 µg/mL
NCC(N)C(=O)O (racemic) [DL-Aminomethyl glycine hydrochloride],"Difference of -log TCID50 /ml, NDV",[1]; [15],1.50
same,"Difference of -log TCID50 /ml, VSV",[13]; [17],0.33
same,"Difference of -log TCID50 /ml, Influenza virus",[3]; [16],1.00
same,"Difference of -log TCID50 /ml, Vaccinia virus",[4]; [15],0.17
same,"Difference of -log TCID50 /ml, Herpes virus",Herpes virus,> 2.50
same,MCC,in vitro [11],> 1000 µg/mL
same,MCC,in vitro [12],3000 µg/mL
NC(=O)NCC(N)C(=O)O (racemic) [DL-Ureidomethyl glycine],"Difference of -log TCID50 /ml, NDV",[1]; [15],1.17
same,"Difference of -log TCID50 /ml, IPNV",[2],3.50
same,MCC,in vitro [11],> 1000 µg/mL
same,MCC,in vitro [12],2000 µg/mL
NC(Cc1ccc(O)cn1)C(=O)O (racemic) [DL-p-Hydroxypyridylmethyl glycine],"Difference of -log TCID50 /ml, NDV",[1]; [15],> 3.00
same,"Difference of -log TCID50 /ml, VSV",[13]; [17],> 2.83
same,"Difference of -log TCID50 /ml, IPNV",[2],3.50
same,"Difference of -log TCID50 /ml, Influenza virus",[3]; [16],0.50
same,MCC,in vitro [11],> 1000 µg/mL
same,MCC,in vitro [12],1000 µg/mL
"NC(Cc1ccc(F)cc1)C(=O)O (racemic) [DL-p-fluoro-phenyl alanine, reference compound]","Difference of -log TCID50 /ml, NDV",[1]; [15],1.17
same,"Difference of -log TCID50 /ml, VSV",[13]; [17],1.00
same,"Difference of -log TCID50 /ml, IPNV",[2],0
same,"Difference of -log TCID50 /ml, Influenza virus",[3]; [16],0
same,MCC,in vitro [11],125 µg/mL
same,MCC,in vitro [12],250 µg/mL
NC(CCP(=O)(O)O)C(=O)O (racemic) [DL-phosphonoethyl glycine],"Difference of -log TCID50 /ml, NDV",[1],1.50
same,"Difference of -log TCID50 /ml, VSV",[13],0.50
same,"Difference of -log TCID50 /ml, IPNV",[2],1.30
same,"Difference of -log TCID50 /ml, Influenza virus",[3],1.00
same,"Difference of -log TCID50 /ml, Vaccinia virus",[4],1.17
same,"Difference of -log TCID50 /ml, Herpes virus","Herpes virus; Hep No. 2 cell, 37° C., 5-7 days, at MDC, 1/2 or 1/4 MDC, vs control",0.50
same,MCC,in vitro [11],250 µg/mL
same,MCC,in vitro [12],4000 µg/mL
"Cl.NC12CC3CC(CC(C3)C1)C2 [1-Adamantanamine hydrochloride, reference compound]","Difference of -log TCID50 /ml, IPNV",[2],2.75
same,"Difference of -log TCID50 /ml, Influenza virus",[3]; [16],> 2.00
same,"Per cent of Inhibition (virus multiplication, HA units)",[5]; 100 mg/kg,76%
same,MCC,in vitro [11],250 µg/mL
same,MCC,in vitro [12],31.2 µg/mL
"NC(=O)NO [Hydroxyurea, reference compound]",Percent of inhibition of pock,[6]; 50 mg/kg,42.8%
"O=C(O)C1NC2CC21 [L-3,5-Cyclo-2-pyrrolidylcarboxylic acid]","Difference of -log TCID50 /ml, NDV",[1]; [15],0.17
same,"Difference of -log TCID50 /ml, IPNV",[2],3.50
same,"Difference of -log TCID50 /ml, Influenza virus",[3]; [16],2.00
same,MCC,in vitro [11],> 1000 µg/mL
same,MCC,in vitro [12],1000 µg/mL
NC[C@H](N)C(=O)O [L-Aminomethyl glycine hydrochloride],"Difference of -log TCID50 /ml, NDV",[1]; [15],1.50
same,"Difference of -log TCID50 /ml, VSV",[13]; [17],0.67
same,"Difference of -log TCID50 /ml, Influenza virus",[3]; [16],1.00
same,"Difference of -log TCID50 /ml, Vaccinia virus",[4]; [15],0.33
same,"Difference of -log TCID50 /ml, Herpes virus",Herpes virus,> 2.50
same,MCC,in vitro [11],> 1000 µg/mL
same,MCC,in vitro [12],4000 µg/mL
"O=C1O[C@H]([C@@H](O)CO)C(O)=C1O [L-Ascorbic acid, reference compound]","Difference of -log TCID50 /ml, NDV",[1]; [15],0.83
same,"Difference of -log TCID50 /ml, VSV",[13]; [17],1.00
same,"Difference of -log TCID50 /ml, Influenza virus",[3]; [16],0
same,MCC,in vitro [11],125 µg/mL
same,MCC,in vitro [12],2000 µg/mL
N[C@@H](CNC(=O)NO)C(=O)O [L-Hydroxyureidomethyl glycine],"Difference of -log TCID50 /ml, NDV",[1]; [15],0.50
same,"Difference of -log TCID50 /ml, IPNV",[2],4.00
same,"Difference of -log TCID50 /ml, Vaccinia virus",[4]; [15],3.50
same,Survival rate,"[14]; 67 days, control 10%",95%
same,Cumulative number of dying fish,"[14]; 28 days, control 0",0
same,Cumulative number of dying fish,"[14]; 46 days, control 2",0
same,Cumulative number of dying fish,"[14]; 55 days, control 13",0
same,Cumulative number of dying fish,"[14]; 67 days, control 18",1
same,"Per cent of Inhibition (virus multiplication, HA units)",[5]; 100 mg/kg,65%
same,Percent of inhibition of pock,[6]; 25 mg/kg,33.7%
same,Percent of inhibition of pock,[6]; 50 mg/kg,48.0%
same,Acute toxicity LD0,mice,> 3000 mg/kg
same,MCC,in vitro [11],> 1000 µg/mL
same,MCC,in vitro [12],4000 µg/mL
CP(=O)(O)CC[C@H](N)C(=O)O [L-Methylphosphinoethyl glycine sodium salt],"Difference of -log TCID50 /ml, NDV",[1]; [15],2.00
same,"Difference of -log TCID50 /ml, Influenza virus (calculated from chick hemagglutination titer)",Influenza virus,> 7.3
same,MCC,in vitro [11],> 1000 µg/mL
same,MCC,in vitro [12],4000 µg/mL
NC(=O)NC[C@H](N)C(=O)O [L-Ureidomethyl glycine hydrochloride],"Difference of -log TCID50 /ml, NDV",[1]; [15],> 4.00
same,"Difference of -log TCID50 /ml, VSV",[13]; [17],0.33
same,"Difference of -log TCID50 /ml, IPNV",[2],3.75
same,"Difference of -log TCID50 /ml, Vaccinia virus",[4]; [15],1.17
same,"Difference of -log TCID50 /ml, Herpes virus",Herpes virus,1.50
same,MCC,in vitro [11],> 1000 µg/mL
same,MCC,in vitro [12],4000 µg/mL
NC(=O)NC[C@H](N)C(=O)O [L-Ureidomethyl glycine],MDT (difference from control),[7]; 500 mg per egg,-6.4
same,MDT (difference from control),"[7]; 1,000 mg per egg",> 4.6
same,MDT (difference from control),[8]; 500 mg per egg,3.2
same,MDT (difference from control),"[8]; 1,000 mg per egg",-6.4
same,Δlog MLD,[8]; in vivo,0
same,MDT (difference from control),[9]; 500 mg per egg,> 5.2
same,MDT (difference from control),"[9]; 1,000 mg per egg",-1.6
same,MDT (difference from control),[10]; 500 mg per egg,> 13.8
same,MDT (difference from control),"[10]; 1,000 mg per egg",> 29.8
"CP(=O)(O)CC[C@H](N)C(=O)O [L-methylphosphinoethyl glycine, L-Methylphosphinoethyl glycine]","Per cent of Inhibition (virus multiplication, HA units)",[5]; 50 mg/kg,67%
same,MDT (difference from control),[7]; 250 mg per egg,> 30.6
same,MDT (difference from control),[7]; 500 mg per egg,> 95.6
same,MDT (difference from control),[8]; 250 mg per egg,2.4
same,MDT (difference from control),[8]; 500 mg per egg,> 45.6
same,MDT (difference from control),[9]; 250 mg per egg,> 23.2
same,MDT (difference from control),[9]; 500 mg per egg,4.8
same,MDT (difference from control),[10]; 250 mg per egg,> 4.8
same,MDT (difference from control),[10]; 500 mg per egg,> 27.8
COC(=O)[C@@H](N)Cc1ccc(O)cn1 [L-p-Hydroxypyridylmethyl glycine methylester hydrochloride],"Difference of -log TCID50 /ml, NDV",[1]; [15],2.00
same,"Difference of -log TCID50 /ml, IPNV",[2],3.75
same,"Difference of -log TCID50 /ml, Influenza virus",[3]; [16],1.00
same,Acute toxicity LD0,mice,> 1000 mg/kg
same,MCC,in vitro [11],1000 µg/mL
same,MCC,in vitro [12],1500 µg/mL
NC(Cc1ccc(F)cc1)C(=O)O (centres unmarked) [p-fluoro-phenyl alanine],antiviral activity (reported),viruses,exhibits an antiviral activity
